The results in this text go back to patent US5032384A, “Compositions and method for the treatment of disease” (Block Drug Company, Inc., priority 1989, dated 1991).

This test concerns the target cyclooxygenase cascade. Kind of test: Inhibition of PGE2 synthesis (assay of cyclooxygenase products, 14C arachidonate incorporation) in homogenate of inflamed human gingival tissue. Format: biochemical.

Experimental: A large pool of inflamed human gingival tissue was obtained from patients with periodontitis who were undergoing routine periodontal surgery. The tissues were immediately stored in liquid nitrogen prior to use or were used fresh. The assay of cyclooxygenase products was performed as a modification of the assay of El Attar et al., J. Periodon. […] Pooled tissue was weighed and homogenized at 0°-4° C. with a Polytron® (Brinkman) homogenizer in a 0.2 M TRIS buffer, pH 8.0, at a final concentration of 20 mg/ml. After centrifugation for 10 minutes at 1200×g, the supernatant was divided into 3 ml aliquots for incubation in the presence or absence of a test compound.
Prostanoids were extracted as described by Powell, Methods in Eng., 86, 467 (1982) using a Sep-Pak-C18 cartridge from Waters Associates. The Sep-Pak was prepared by the sequential elution of 20 milliliters of ethanol and 20 milliliters of water. The sample was then adjusted to 15% ethanol, pH 3.0, with acetic acid and applied to the column. […]
These are readily separated and quantified using a 4.6×100 nm RP-18 Spheri-5u column from Brownle Labs. A Flow-One radioactivity monitor simultaneously measured radioactivity while monitoring elution at 192 nanometers.
The net incorporation of the 14C arachidonate was measured in the absence of the test substance in order to determine the maximum activity of the cyclooxygenase cascade.

For the compound `CC(C(=O)O)c1cccc(C(=O)c2ccccc2)c1` (centres unmarked) [ketoprofen], the “IC50 value of ketoprofen (inhibition of PGE2 synthesis)” value (change in presence of alpha-tocopherol) is “lowered”.
Regarding `Cc1c(C)c2c(c(C)c1O)CCC(C)(CCCC(C)CCCC(C)CCCC(C)C)O2` (stereo not drawn) [alpha-tocopherol], the “IC50 value of alpha-tocopherol (inhibition of PGE2 synthesis)” value (change in presence of ketoprofen) was “lowered”.
